Values after ≈ are worked out from the molar mass of the structure shown. Active and inactive are the calls of the source. The calls are words filed in the database; no cut-off is given here.
Assays:
[1] = Selectivity ratio of cytotoxicity against human WI38 cells to MIC for Acinetobacter baumannii ATCC 17978; type: toxicity, cell-based
[2] = Selectivity ratio of cytotoxicity against human WI38 cells to MIC for methicillin sensitive Staphylococcus aureus NCTC 6571; type: toxicity, cell-based
[3] = Selectivity ratio of cytotoxicity against human WI38 cells to MIC for multidrug-resistant Acinetobacter baumannii AYE; type: toxicity, cell-based
Klebsiella pneumoniae [4] = assay: Antimicrobial activity against multidrug-resistant Klebsiella pneumoniae NCTC 13368 by microdilution broth method; type: functional
Staphylococcus aureus [5] = assay: Antibacterial activity against methicillin resistant Staphylococcus aureus NCTC 13616 by microdilution broth method; type: functional
DNA [6] = assay: Stabilization of 5'-FAM-TAT-ATA-TAG-ATA-TTT-TTT-TAT-CTA-TAT-ATA-3'-TAMRA DNA (unknown origin) assessed as reduction in change in melting temperature at 1:1 to 5:1 ligand to DNA ratio measured after 3 hrs by FRET-based assay relative to control; type: ADME, nucleic-acid assay
[7] = Selectivity ratio of cytotoxicity against human WI38 cells to MIC for multidrug-resistant Pseudomonas aeruginosa NCTC 13437; type: toxicity, cell-based
Klebsiella pneumoniae [8] = assay: Antimicrobial activity against Klebsiella pneumoniae M6 by microdilution broth method; type: functional
[9] = Selectivity ratio of cytotoxicity against human WI38 cells to MIC for Klebsiella pneumoniae M6; type: toxicity, cell-based
[10] = Cytotoxicity against human WI38 cells assessed as cell viability at 20 uM measured after 24 hrs by MTT assay relative to control; type: cell-based, WI-38; settings: read-out: Activity
Acinetobacter baumannii [11] = assay: Antimicrobial activity against multidrug-resistant Acinetobacter baumannii AYE by microdilution broth method; type: functional
[12] = Selectivity ratio of cytotoxicity against human WI38 cells to MIC for vancomycin resistant Enterococcus faecalis NCTC 12201; type: toxicity, cell-based
Staphylococcus aureus [13] = assay: Antibacterial activity against methicillin sensitive Staphylococcus aureus NCTC 6571 by microdilution broth method; type: functional
[14] = Selectivity ratio of cytotoxicity against human WI38 cells to MIC for vancomycin sensitive Enterococcus faecalis NCTC 775; type: toxicity, cell-based
[15] = Selectivity ratio of cytotoxicity against human WI38 cells to MIC for vancomycin resistant Enterococcus faecium NCTC 12204; type: toxicity, cell-based
DNA [16] = assay: Stabilization of 5'-FAM-TAT-AGA-TAT-AGA-TAT-TTT-ATA-TCT-ATA-TCT-ATA-3'-TAMRA DNA (unknown origin) assessed as reduction in change in melting temperature at 1:1 to 5:1 ligand to DNA ratio measured after 3 hrs by FRET-based assay relative to control; type: ADME, nucleic-acid assay
Enterococcus faecalis [17] = assay: Antibacterial activity against vancomycin sensitive Enterococcus faecalis NCTC 775 by microdilution broth method; type: functional
Pseudomonas aeruginosa [18] = assay: Antimicrobial activity against multidrug-resistant Pseudomonas aeruginosa NCTC 13437 by microdilution broth method; type: functional
Staphylococcus aureus [19] = assay: Antibacterial activity against methicillin resistant Staphylococcus aureus NCTC 13277 by microdilution broth method; type: functional
[20] = Selectivity ratio of cytotoxicity against human WI38 cells to MIC for methicillin resistant Staphylococcus aureus NCTC 13277; type: toxicity, cell-based
[21] = Selectivity ratio of cytotoxicity against human WI38 cells to MIC for multidrug-resistant Klebsiella pneumoniae NCTC 13368; type: toxicity, cell-based
Pseudomonas aeruginosa [22] = assay: Antimicrobial activity against Pseudomonas aeruginosa PAO1 by microdilution broth method; type: functional
[23] = Selectivity ratio of cytotoxicity against human WI38 cells to MIC for methicillin resistant Staphylococcus aureus NCTC 13616; type: toxicity, cell-based
Acinetobacter baumannii [24] = assay: Antimicrobial activity against Acinetobacter baumannii ATCC 17978 by microdilution broth method; type: functional
Enterococcus faecium = assay: Antibacterial activity against vancomycin resistant Enterococcus faecium NCTC 12204 by microdilution broth method; type: functional
Enterococcus faecalis [25] = assay: Antibacterial activity against vancomycin resistant Enterococcus faecalis NCTC 12201 by microdilution broth method; type: functional
[26] = Selectivity ratio of cytotoxicity against human WI38 cells to MIC for Pseudomonas aeruginosa PAO1; type: toxicity, cell-based
[27] = target: T1, DNA repair protein RecN (Escherichia coli) (UniProt P05824); assay: Induction of Escherichia coli K12 MG1655 recN promotor measured at 30 mins interval for 20 hrs by fluorescence assay relative to control; settings: Escherichia coli str. K-12 substr. MG1655
T1 sequence (whole entry): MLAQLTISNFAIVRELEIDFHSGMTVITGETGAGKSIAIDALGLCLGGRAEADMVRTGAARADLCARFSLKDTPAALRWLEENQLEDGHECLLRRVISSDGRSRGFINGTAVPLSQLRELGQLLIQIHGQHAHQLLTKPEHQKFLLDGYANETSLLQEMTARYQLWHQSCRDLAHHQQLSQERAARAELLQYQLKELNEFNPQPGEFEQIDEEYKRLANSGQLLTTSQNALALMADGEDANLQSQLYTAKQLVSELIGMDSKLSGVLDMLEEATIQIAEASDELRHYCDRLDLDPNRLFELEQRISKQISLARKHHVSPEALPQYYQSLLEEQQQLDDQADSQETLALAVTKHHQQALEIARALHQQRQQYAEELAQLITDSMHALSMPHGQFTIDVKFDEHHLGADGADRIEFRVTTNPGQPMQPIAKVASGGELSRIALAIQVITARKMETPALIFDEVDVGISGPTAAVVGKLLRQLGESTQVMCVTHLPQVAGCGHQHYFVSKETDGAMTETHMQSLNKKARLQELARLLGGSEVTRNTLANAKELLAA

[28] = target: T2, LexA repressor (Escherichia coli) (UniProt P0A7C2); assay: Induction of Escherichia coli K12 MG1655 lexA promotor measured at 30 mins interval for 20 hrs by fluorescence assay relative to control; settings: Escherichia coli str. K-12 substr. MG1655
T2 sequence (whole entry): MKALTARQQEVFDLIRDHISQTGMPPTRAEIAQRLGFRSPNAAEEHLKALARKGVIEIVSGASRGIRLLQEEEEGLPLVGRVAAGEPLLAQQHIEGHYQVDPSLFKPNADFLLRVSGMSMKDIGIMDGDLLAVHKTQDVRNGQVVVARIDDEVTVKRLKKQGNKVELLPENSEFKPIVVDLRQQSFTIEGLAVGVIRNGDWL

[29] = target: T3, Cell division inhibitor SulA (Escherichia coli K-12) (UniProt P0AFZ5); assay: Induction of Escherichia coli K12 MG1655 sulA promotor measured at 30 mins interval for 20 hrs by fluorescence assay relative to control; settings: Escherichia coli str. K-12 substr. MG1655
T3 sequence (whole entry): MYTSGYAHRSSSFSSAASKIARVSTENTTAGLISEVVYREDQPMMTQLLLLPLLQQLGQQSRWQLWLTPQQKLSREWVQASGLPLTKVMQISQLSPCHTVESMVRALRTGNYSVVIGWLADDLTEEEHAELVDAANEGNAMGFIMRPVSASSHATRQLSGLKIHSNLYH

[30] = target: T4, Protein RecA (Escherichia coli K-12) (UniProt P0A7G6); assay: Induction of Escherichia coli K12 MG1655 recA promotor measured at 30 mins interval for 20 hrs by fluorescence assay relative to control; settings: Escherichia coli str. K-12 substr. MG1655
T4 sequence (whole entry): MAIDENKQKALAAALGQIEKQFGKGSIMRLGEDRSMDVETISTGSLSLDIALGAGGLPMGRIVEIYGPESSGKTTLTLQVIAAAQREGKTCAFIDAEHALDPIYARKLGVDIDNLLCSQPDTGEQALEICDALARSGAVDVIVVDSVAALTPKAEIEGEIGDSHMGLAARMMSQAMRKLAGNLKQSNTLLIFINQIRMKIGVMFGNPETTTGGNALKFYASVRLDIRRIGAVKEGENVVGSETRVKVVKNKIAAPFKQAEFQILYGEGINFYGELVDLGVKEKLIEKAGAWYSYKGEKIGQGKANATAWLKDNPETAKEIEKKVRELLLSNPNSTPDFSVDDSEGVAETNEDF

`COc1cc2c(cc1OCCCC(=O)Nc1cc(C(=O)Nc3ccc(-c4cc(C(=O)N5CCOCC5)n(C)c4)cc3)n(C)c1)N=C[C@@H]1CCCN1C2=O` gave a selectivity ratio [1] of 10, a selectivity ratio [2] of 100 and a selectivity ratio [3] of 10. For the same compound, the MIC (Klebsiella pneumoniae [4]) was 32 µg/mL (≈ 44.3 µM), the MIC (Staphylococcus aureus [5]) was ≤ 0.125 µg/mL and the fold change (FC) (DNA [6]) was 3 to 4. It also gave a selectivity ratio [7] of 10, an MIC (Klebsiella pneumoniae [8]) of 2 µg/mL (≈ 2.77 µM) and a selectivity ratio [9] of 10. For the same compound, the viability at 24 h, 20 µM [10] was > 85%, the MIC (Acinetobacter baumannii [11]) was 2 µg/mL (≈ 2.77 µM) and the selectivity ratio [12] was 100. For the same compound, the MIC (Staphylococcus aureus [13]) was ≤ 0.125 µg/mL, the selectivity ratio [14] was 100 and the selectivity ratio [15] was 100. The fold change (FC) (DNA [16]) was 3 to 4, the MIC (Enterococcus faecalis [17]) was ≤ 0.125 µg/mL and the MIC (Pseudomonas aeruginosa [18]) was > 128 µg/mL. For the same compound, the MIC (Staphylococcus aureus [19]) was ≤ 0.125 µg/mL, the selectivity ratio [20] was 100 and the selectivity ratio [21] was 10. The MIC (Pseudomonas aeruginosa [22]) was > 128 µg/mL, the selectivity ratio [23] was 100 and the MIC (Acinetobacter baumannii [24]) was 4 µg/mL (≈ 5.54 µM). For the same compound, the MIC (Enterococcus faecium) was ≤ 0.125 µg/mL, the MIC (Enterococcus faecalis [25]) was ≤ 0.125 µg/mL and the selectivity ratio [26] was 10.
For `C[C@H]1c2cccc(O)c2C(=O)C2=C(O)[C@]3(O)C(=O)C(C(N)=O)=C(O)[C@@H](N(C)C)[C@@H]3[C@@H](O)[C@@H]21`, the Activity [27] was “inactive”, the Activity [28] was “inactive” and the Activity [29] was “inactive”. The Activity [30] was “inactive”.
In the case of `CC1(C)S[C@@H]2[C@H](NC(=O)[C@H](N)c3ccccc3)C(=O)N2[C@H]1C(=O)O`, the Activity [27] is reported as “inactive”, the Activity [28] is reported as “inactive” and the Activity [29] is reported as “inactive”. For the same compound, the Activity [30] was “inactive”.
`COc1c(N2C[C@@H]3CCCN[C@@H]3C2)c(F)cc2c(=O)c(C(=O)O)cn(C3CC3)c12` gave a fold change (FC) [27] of 14 to 32, a fold change (FC) [28] of 5 to 13 and a fold change (FC) [29] of 17 to 41. For the same compound, the fold change (FC) [30] was 20 to 35.
For `C[C@H]1COc2c(N3CCN(C)CC3)c(F)cc3c(=O)c(C(=O)O)cn1c23`, the fold change (FC) [27] was 14 to 32, the fold change (FC) [28] was 5 to 13 and the fold change (FC) [29] was 17 to 41. For the same compound, the fold change (FC) [30] was 20 to 35.

From ChEMBL document CHEMBL4610120, “New Broad-Spectrum Antibiotics Containing a Pyrrolobenzodiazepine Ring with Activity against Multidrug-Resistant Gram-Negative Bacteria” (J Med Chem, 2020)
